Each structure is given as a SMILES string. Like-named read-outs stand apart in the source and are kept apart here.

The target in test [1] is T1, DENV2 NS2B/NS3pro (Dengue virus type 2, UniProt P14340). Kind of test: biochemical.
The target in test [2] is T2, YFV NS2B/NS3pro (Yellow fever virus, UniProt Q1X881). Kind of test: biochemical.
Test [3] concerns the target T3, WNV NS2B/NS3pro (West Nile virus, UniProt P06935). Kind of test: biochemical. Format: biochemical.
Test [4] has as its target T4, ZIKV NS2B/NS3pro (Zika virus, UniProt A0A024B7W1). Kind of test: biochemical.
Test [5] has as its target T1, DENV2 NS2B/NS3pro. Kind of test: Surface plasmon resonance dissociation constant. Format: binding.
In test [6] the target is T2, YFV NS2B/NS3pro. Kind of test: biochemical. Format: binding.
Test [7] deals with T3, WNV NS2B/NS3pro. Kind of test: Surface plasmon resonance dissociation constant. Format: binding.
Test [8] has as its target T4, ZIKV NS2B/NS3pro. Kind of test: Surface plasmon resonance dissociation constant. Format: binding.
Test [9] addresses T1, DENV2 NS2B/NS3pro. Format: binding.
Test [10] has as its target T2, YFV NS2B/NS3pro. Format: binding.
In test [11] the target is T4, ZIKV NS2B/NS3pro. Format: binding.
The target of test [12] is T4, ZIKV NS2B/NS3pro. The settings on record: Li and collaborators; cited from earlier work.

T3 sequence (P06935 1420-1465): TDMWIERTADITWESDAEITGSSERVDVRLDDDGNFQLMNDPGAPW
T3 sequence (P06935 1502-1671): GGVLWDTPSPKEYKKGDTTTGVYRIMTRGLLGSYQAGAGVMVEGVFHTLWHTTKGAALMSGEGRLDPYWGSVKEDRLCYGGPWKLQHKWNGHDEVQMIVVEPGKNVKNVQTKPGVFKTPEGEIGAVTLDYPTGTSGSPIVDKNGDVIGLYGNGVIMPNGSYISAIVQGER
T2 sequence (Q1X881 1402-1449 limits assumed): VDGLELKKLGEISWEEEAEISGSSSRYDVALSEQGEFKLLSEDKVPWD
T2 sequence (Q1X881 1491-1660 limits assumed): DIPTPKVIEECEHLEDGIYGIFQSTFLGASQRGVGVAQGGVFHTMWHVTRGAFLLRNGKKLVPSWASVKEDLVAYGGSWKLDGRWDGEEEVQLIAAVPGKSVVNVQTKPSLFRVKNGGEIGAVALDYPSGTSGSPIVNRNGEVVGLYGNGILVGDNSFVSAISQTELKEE
T4 sequence (A0A024B7W1 1421-1467): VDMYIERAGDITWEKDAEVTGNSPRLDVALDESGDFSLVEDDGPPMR
T4 sequence (A0A024B7W1 1503-1672): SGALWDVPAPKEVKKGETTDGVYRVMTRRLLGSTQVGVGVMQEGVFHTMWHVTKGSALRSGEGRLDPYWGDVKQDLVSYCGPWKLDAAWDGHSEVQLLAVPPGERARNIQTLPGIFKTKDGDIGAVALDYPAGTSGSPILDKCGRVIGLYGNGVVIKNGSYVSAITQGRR
T1 sequence (P14340 1394-1440 limits assumed): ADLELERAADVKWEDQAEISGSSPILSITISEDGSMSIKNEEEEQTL
T1 sequence (P14340 1476-1660 limits assumed): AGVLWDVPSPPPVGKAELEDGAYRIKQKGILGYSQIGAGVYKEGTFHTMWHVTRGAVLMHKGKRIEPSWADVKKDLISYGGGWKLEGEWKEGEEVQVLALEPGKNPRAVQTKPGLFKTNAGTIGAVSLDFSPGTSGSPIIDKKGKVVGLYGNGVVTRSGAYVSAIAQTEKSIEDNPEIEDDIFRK

Take `Oc1cc(O)c2c(c1)O[C@H](c1cc(O)c(O)c(O)c1)[C@H](O)C2` [EGC, epigallocatechin]: the IC50 on DENV2 NS2B/NS3pro [1] amounted to 145 ± 3 µM; against YFV NS2B/NS3pro [2], 19 ± 1.9 µM; at WNV NS2B/NS3pro [3], 17.3 ± 2.5 µM; against ZIKV NS2B/NS3pro [4], 8.9 ± 1.2 µM. Also, the “Inhibition Mode” value on DENV2 NS2B/NS3pro [1], on YFV NS2B/NS3pro [2], at WNV NS2B/NS3pro [3] and at ZIKV NS2B/NS3pro [4] was “Competitive” throughout. Further, the Kd at DENV2 NS2B/NS3pro [5] stood at 0.03 µM; on YFV NS2B/NS3pro [6], 0.27 µM; on WNV NS2B/NS3pro [7] it was 0.22 µM; at ZIKV NS2B/NS3pro [8], 0.02 µM. Also, the “Trp emission band after titration of the molecule (excitation shift)” value on DENV2 NS2B/NS3pro [9], at YFV NS2B/NS3pro [10] and at ZIKV NS2B/NS3pro [11] was “no excitation shift” in each case.

Consider `O=C(O[C@@H]1Cc2c(O)cc(O)cc2O[C@@H]1c1ccc(O)c(O)c1)c1cc(O)c(O)c(O)c1` [ECG, epicatechin gallate], for which the IC50 at ZIKV NS2B/NS3pro [12] was 89 µM.

In the case of `CC(=O)Oc1cc(OC(C)=O)c2c(c1)O[C@H](c1cc(OC(C)=O)c(OC(C)=O)c(OC(C)=O)c1)[C@H](OC(=O)c1cc(OC(C)=O)c(OC(C)=O)c(OC(C)=O)c1)C2` [AcEGCG, EGCG octaacetate], the IC50 was 39.8 ± 2.5 µM at DENV2 NS2B/NS3pro [1], 39.1 ± 2.2 µM against YFV NS2B/NS3pro [2], 83.4 ± 10.4 µM against WNV NS2B/NS3pro [3] and 102 ± 2.6 µM at ZIKV NS2B/NS3pro [4]. In addition, the “Inhibition Mode” value at DENV2 NS2B/NS3pro [1], at YFV NS2B/NS3pro [2], on WNV NS2B/NS3pro [3] and on ZIKV NS2B/NS3pro [4] was “Noncompetitive” each time. The Kd at DENV2 NS2B/NS3pro [5] was 2.4 µM; at YFV NS2B/NS3pro [6], 0.47 µM; at WNV NS2B/NS3pro [7], 0.98 µM; at ZIKV NS2B/NS3pro [8] it was 4.8 µM. The “Trp emission band after titration of the molecule (excitation shift)” value on DENV2 NS2B/NS3pro [9], on YFV NS2B/NS3pro [10] and on ZIKV NS2B/NS3pro [11] was 360 nm throughout.

For the molecule `O=C(O[C@@H]1Cc2c(O)cc(O)cc2O[C@@H]1c1cc(O)c(O)c(O)c1)c1cc(O)c(O)c(O)c1` [EGCG, Epigallocatechin gallate], the IC50 on DENV2 NS2B/NS3pro [1] was 6.3 ± 1 µM; against YFV NS2B/NS3pro [2] it was 8 ± 1.4 µM; against ZIKV NS2B/NS3pro [4], 4.5 ± 0.6 µM. Besides, the “Inhibition Mode” value on DENV2 NS2B/NS3pro [1], at YFV NS2B/NS3pro [2], on WNV NS2B/NS3pro [3] and on ZIKV NS2B/NS3pro [4] was “Noncompetitive” in each case. The Kd at DENV2 NS2B/NS3pro [5] was 0.07 µM; at YFV NS2B/NS3pro [6] it was 0.06 µM; at ZIKV NS2B/NS3pro [8], 0.09 µM.

The values above are taken from PMC10053286, “The Importance of Epigallocatechin as a Scaffold for Drug Development against Flaviviruses” (Pharmaceutics, 2023).
